Experimental data taken from PMC8170749, “4-(1-Benzyl-1H-benzo[d]imidazol-2-yl)-4-oxo-2-butenoic Acid Derivatives: Design, Synthesis and Anti-HIV-1 Activity” (Iranian Journal of Pharmaceutical Research : IJPR, 2021).
pEC50: −log10 of the molar value.

Key:
[1] = system: HIV-1 integrase (IN); design: method as in PMID 27659398, PMID 21728968, PMID 22214459, PMID 21767569; conditions: cited from earlier work
[2] = design: method as in PMID 27659398, PMID 21728968, PMID 22214459, PMID 21767569; conditions: cited from earlier work
[3] = system: HIV-1; design: method as in PMID 27659398, PMID 21728968, PMID 22214459, PMID 21767569; conditions: cited from earlier work
[4] = system: single cycle replicable HIV NL4-3 virions; assay: single-cycle HIV-1 replication assay in HeLa cells (p24 ELISA); type: cell-based; conditions: for pEC50: Human immunodeficiency virus 1, NL43, HeLa, 72 h, read-out: Anti-HIV-1 activity (EC50)
[5] = in vitro; conditions: human

| Compound | inhibitory activity in enzymatic assays [1] | cell toxicity [2] | inhibitory activity in cellular assays [3] | SI (selectivity index, CC50/EC50 ratio) [4] | pEC50 [4] | CC50 at 72 h [5] [µM] | CC50 [5] [µM] |
| --- | --- | --- | --- | --- | --- | --- | --- |
| COc1cccc2c1c(C(=O)/C=C(\O)C(=O)O)cn2Cc1ccc(F)cc1 [CHI-1043] | submicromolar | low cell toxicity | submicromolar |  |  |  |  |
| O=C(O)C(O)=CC(=O)c1nc2ccccc2n1Cc1ccccc1 [Compound 13a, 4-(1-benzyl-1H-benzo[d]imidazol-2-yl)-2-hydroxy-4-oxo-2-butenoic acid] |  |  |  | 4.5 | 3.96 | 500 |  |
| Cc1ccccc1Cn1c(C(=O)C=C(O)C(=O)O)nc2ccccc21 [Compound 13b, 4-(1-(2-methylbenzyl)-1H-benzo[d]imidazol-2-yl)-2-hydroxy-4-oxo-2-butenoic acid] |  |  |  | 9.8 | 4.22 | 590 |  |
| Cc1cccc(Cn2c(C(=O)C=C(O)C(=O)O)nc3ccccc32)c1 [Compound 13c, 4-(1-(3-methylbenzyl)-1H-benzo[d]imidazol-2-yl)-2-hydroxy-4-oxo-2-butenoic acid] |  |  |  | 5.7 | 4.12 | 430 |  |
| Cc1ccc(Cn2c(C(=O)C=C(O)C(=O)O)nc3ccccc32)cc1 [Compound 13d, 4-(1-(4-methylbenzyl)-1H-benzo[d]imidazol-2-yl)-2-hydroxy-4-oxo-2-butenoic acid] |  |  |  | 11.6 | 4.30 | 580 |  |
| O=C(O)C(O)=CC(=O)c1nc2ccccc2n1Cc1ccccc1Cl [Compound 13e, 4-(1-(2-chlorobenzyl)-1H-benzo[d]imidazol-2-yl)-2-hydroxy-4-oxo-2-butenoic acid] |  |  |  | 2.4 | 3.81 | 380 |  |
| O=C(O)C(O)=CC(=O)c1nc2ccccc2n1Cc1cccc(Cl)c1 [Compound 13f, 4-(1-(3-chlorobenzyl)-1H-benzo[d]imidazol-2-yl)-2-hydroxy-4-oxo-2-butenoic acid] |  |  |  | 7.4 | 4.26 | 410 |  |
| O=C(O)C(O)=CC(=O)c1nc2ccccc2n1Cc1ccccc1F [Compound 13g, 4-(1-(2-fluorobenzyl)-1H-benzo[d]imidazol-2-yl)-2-hydroxy-4-oxo-2-butenoic acid] |  |  |  | 13.7 | 4.40 | 550 |  |
| O=C(O)C(O)=CC(=O)c1nc2ccccc2n1Cc1cccc(F)c1 [Compound 13h, 4-(1-(3-fluorobenzyl)-1H-benzo[d]imidazol-2-yl)-2-hydroxy-4-oxo-2-butenoic acid] |  |  |  | 8.7 | 4.26 | 480 |  |
| COc1cccc(Cn2c(C(=O)C=C(O)C(=O)O)nc3ccccc32)c1 [Compound 13i, 4-(1-(3-methoxybenzyl)-1H-benzo[d]imidazol-2-yl)-2-hydroxy-4-oxo-2-butenoic acid] |  |  |  | 5.4 | 4.05 | 490 |  |
| O=C(O)/C(O)=C/C(=O)c1cccn1Cc1ccc(F)cc1 [L-731,988] |  | low cell toxicity |  |  |  |  |  |
| Cc1nnc(C(=O)NC(C)(C)c2nc(C(=O)NCc3ccc(F)cc3)c(O)c(=O)n2C)o1 [Raltegravir, reference compound] |  |  |  |  | 6.05 |  | > 500 |
